Results from patent US10793563B2, “GCN2 inhibitors and uses thereof” (Merck Patent GmbH, priority 2018, dated 2020).

Tests used:
[1] = molecular target: intracellular GCN2 (phosphorylation of the GCN2 substrate eIF2α) (Homo sapiens (Human), UniProt Q9P2K8); assay: GCN2 Cellular Inhibition Assay (AlphaScreen SureFire P-eIF2α Ser51, borrelidin-treated U2OS cells); type: cell-based; conditions: 10 μM borrelidin, 1 h, phosphorylated eIF2α Ser51, read-out: GCN2 Biomarker (IC50)
How it was run: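 U2OS cells adhered overnight, then given compound (top 40 μM, 4-fold serial dilutions) plus 10 μM borrelidin for 1 h at 37 °C. Lysates assayed for eIF2α phospho-Ser51 by AlphaScreen SureFire; % inhibition versus borrelidin-only wells.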

GCN2 kinase = GCN2 kinase (Homo sapiens (Human), UniProt Q9P2K8); assay: GCN2 Enzyme Inhibition Assay (Transcreener ADP2 fluorescence polarization); type: biochemical; conditions: 280 μM ATP, 200 μM (RS)7 peptide, 4 nM GCN2, 25° C.; for Ki: Ki(app)
How it was run: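 Transcreener ADP2 fluorescence polarization detection of ADP from 4 nM GCN2 with (RS)7 substrate in 25 mM Tris-HCl pH 7.5, 50 mM NaCl, 10 mM MgCl2, 1 mM DTT. Compound pre-incubated with enzyme 10 min at 25 °C; reaction started by ATP, run 1 h at 25 °C. IC50 and Ki(app) by tight-binding fit.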

intracellular GCN2 (phosphorylation of the GCN2 substrate eIF2α), sequence (Q9P2K8 whole entry): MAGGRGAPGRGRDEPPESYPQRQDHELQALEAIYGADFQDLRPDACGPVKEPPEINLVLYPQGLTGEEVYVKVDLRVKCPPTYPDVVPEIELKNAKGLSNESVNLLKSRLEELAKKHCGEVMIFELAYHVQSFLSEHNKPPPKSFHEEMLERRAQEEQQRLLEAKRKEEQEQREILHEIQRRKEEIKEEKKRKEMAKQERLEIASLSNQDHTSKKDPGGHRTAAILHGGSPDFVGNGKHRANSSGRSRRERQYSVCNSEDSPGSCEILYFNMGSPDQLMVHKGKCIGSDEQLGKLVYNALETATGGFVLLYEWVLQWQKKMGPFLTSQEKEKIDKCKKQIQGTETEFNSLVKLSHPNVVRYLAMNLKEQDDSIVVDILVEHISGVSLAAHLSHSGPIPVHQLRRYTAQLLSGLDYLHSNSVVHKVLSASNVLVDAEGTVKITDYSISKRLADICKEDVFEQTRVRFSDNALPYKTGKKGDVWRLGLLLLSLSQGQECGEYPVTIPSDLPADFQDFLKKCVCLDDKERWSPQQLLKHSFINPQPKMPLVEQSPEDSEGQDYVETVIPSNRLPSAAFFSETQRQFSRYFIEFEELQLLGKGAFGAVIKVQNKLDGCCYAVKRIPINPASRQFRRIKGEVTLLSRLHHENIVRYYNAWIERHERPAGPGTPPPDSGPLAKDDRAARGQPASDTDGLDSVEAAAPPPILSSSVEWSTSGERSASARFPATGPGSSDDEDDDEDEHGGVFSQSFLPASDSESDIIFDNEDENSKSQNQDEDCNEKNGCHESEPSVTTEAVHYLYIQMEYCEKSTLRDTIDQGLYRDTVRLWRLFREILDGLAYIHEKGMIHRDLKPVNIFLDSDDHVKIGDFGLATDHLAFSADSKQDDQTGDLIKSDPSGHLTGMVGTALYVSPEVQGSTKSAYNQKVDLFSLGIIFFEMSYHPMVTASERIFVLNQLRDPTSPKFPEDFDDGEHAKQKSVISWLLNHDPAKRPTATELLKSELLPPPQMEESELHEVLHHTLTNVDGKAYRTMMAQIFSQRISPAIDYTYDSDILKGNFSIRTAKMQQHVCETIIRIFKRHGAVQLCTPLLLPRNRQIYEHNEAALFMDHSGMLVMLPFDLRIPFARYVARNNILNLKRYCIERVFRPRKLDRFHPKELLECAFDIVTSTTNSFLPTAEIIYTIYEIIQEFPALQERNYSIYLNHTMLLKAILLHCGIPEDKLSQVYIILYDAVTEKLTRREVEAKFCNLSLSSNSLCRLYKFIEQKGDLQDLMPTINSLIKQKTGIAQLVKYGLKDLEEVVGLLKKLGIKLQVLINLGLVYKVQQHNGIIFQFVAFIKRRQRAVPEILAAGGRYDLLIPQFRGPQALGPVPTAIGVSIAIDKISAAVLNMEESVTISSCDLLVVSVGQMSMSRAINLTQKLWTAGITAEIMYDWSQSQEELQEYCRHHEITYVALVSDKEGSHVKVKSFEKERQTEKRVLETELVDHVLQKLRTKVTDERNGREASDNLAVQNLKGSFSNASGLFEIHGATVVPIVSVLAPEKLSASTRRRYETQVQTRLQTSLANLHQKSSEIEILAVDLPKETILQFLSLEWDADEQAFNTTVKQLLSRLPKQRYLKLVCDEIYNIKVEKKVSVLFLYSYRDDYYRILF
GCN2 kinase, sequence (Q9P2K8 whole entry): as above

| Compound | IC50 [1] [nM] | IC50 (GCN2 kinase) [nM] | Ki (GCN2 kinase) [nM] |
| --- | --- | --- | --- |
| Cc1[nH]ncc1[C@@H]1C[C@@H](O)CN(c2ccnc(-c3cnc4ccc(C(F)(F)F)cn34)n2)C1 [I-308, (3R,5S)-5-(5-methyl-1H-pyrazol-4-yl)-1-(2-(6-(trifluoromethyl)imidazo[1,2-a]pyridin-3-yl)pyrimidin-4-yl)piperidin-3-ol] | 500 to 5000 | 10 to 100 |  |
| Cc1noc([C@H]2CN(c3ccnc(-c4cnc5ccc(C(F)(F)F)cn45)n3)C[C@@H](C)O2)n1 (stereo in doubt) [I-90, 2-methyl-6-(3-methyl-1,2,4-oxadiazol-5-yl)-4-{2-[6-(trifluoromethyl)imidazo[1,2-a]pyridin-3-yl]pyrimidin-4-yl}morpholine] | < 500 |  | < 10 |
| C[C@@H]1CN(c2nccc(-c3cnc4cc(F)c(Cl)cn34)n2)C[C@@H](c2cn[nH]c2)O1 [I-274, (2R,6R)-4-(4-(6-chloro-7-fluoroimidazo[1,2-a]pyridin-3-yl)pyrimidin-2-yl)-2-methyl-6-(1H-pyrazol-4-yl)morpholine] | 500 to 5000 | 10 to 100 |  |
| C[C@@H]1C[C@H](N=S(C)(C)=O)CN(c2ccnc(-c3cnc4cc(Cl)c(Cl)cn34)n2)C1 [I-269, (((3 S,5R)-1-(2-(6,7-dichloroimidazo[1,2-a]pyridin-3-yl)pyrimidin-4-yl)-5-methylpiperidin-3-yl)imino)dimethyl-λ6-sulfanone] | 500 to 5000 | 10 to 100 |  |
| C[C@@H]1[C@@H](c2cn[nH]c2)N(C2COC2)CCN1c1ccnc(-c2cnc3ccc(C(F)(F)F)cn23)n1 [I-363, 3-(4-((2R,3R)-2-methyl-4-(oxetan-3-yl)-3-(1H-pyrazol-4-yl)piperazin-1-yl)pyrimidin-2-yl)-6-(trifluoromethyl)imidazo[1,2-a]pyridine] | 500 to 5000 | 100 to 1000 |  |
| CS(=O)(=O)NC1CC(C(F)(F)F)CN(c2ccnc(-c3cnc4ccc(C(F)(F)F)cn34)n2)C1 (centres unmarked) [I-478, N-(5-(trifluoromethyl)-1-(2-(6-(trifluoromethyl)imidazo[1,2-a]pyridin-3-yl)pyrimidin-4-yl)piperidin-3-yl)methanesulfonamide] | < 500 | 10 to 100 |  |
| CC(NS(C)(=O)=O)C1CN(c2ccnc(-c3cnc4ccc(C(F)(F)F)cn34)n2)CCO1 (centres unmarked) [I-327, N-(1-(4-(2-(6-(trifluoromethyl)imidazo[1,2-a]pyridin-3-yl)pyrimidin-4-yl)morpholin-2-yl)ethyl)methanesulfonamide] | 500 to 5000 | 10 to 100 |  |
| Clc1ccc2ncc(-c3nccc(N4CCOC(c5cn[nH]c5)C4)n3)n2c1 (centres unmarked) [I-20, 4-[2-(6-Chloroimidazo[1,2-a]pyridin-3-yl)pyrimidin-4-yl]-2-(1H-pyrazol-4-yl)morpholine] | < 500 |  | < 10 |
| NC(=O)[C@@H]1CN(c2ccnc(-c3cnc4cc(F)c(Cl)cn34)n2)CCN1C1CC1 [I-424, (S)-4-(2-(6-chloro-7-fluoroimidazo[1,2-a]pyridin-3-yl)pyrimidin-4-yl)-1-cyclopropylpiperazine-2-carboxamide] | 500 to 5000 | 10 to 100 |  |
| Cc1cnc(N2C[C@@H](c3cn[nH]c3C)O[C@@H](C)C2)nc1-c1cnc2ccc(Cl)cn12 [I-203, (2S,6R)-4-(4-(6-chloroimidazo[1,2-a]pyridin-3-yl)-5-methylpyrimidin-2-yl)-2-methyl-6-(5-methyl-1H-pyrazol-4-yl)morpholine] | 500 to 5000 | 10 to 100 |  |
| FC(F)(F)c1ccc2ncc(-c3nccc(N4CCN(Cc5ncc[nH]5)C(c5cn[nH]c5)C4)n3)n2c1 (centres unmarked) [I-371, 3-(4-(4-((1H-imidazol-2-yl)methyl)-3-(1H-pyrazol-4-yl)piperazin-1-yl)pyrimidin-2-yl)-6-(trifluoromethyl)imidazo[1,2-a]pyridine] | 500 to 5000 | < 10 |  |
| c1ccc(Oc2ccc3ncc(-c4nccc(N5CCC[C@H](c6cn[nH]c6)C5)n4)n3c2)cc1 [I-398, 2-{6-phenoxyimidazo[1,2-a]pyridin-3-yl}-4-[(3R)-3-(1H-pyrazol-4-yl)piperidin-1-yl]pyrimidine] | 500 to 5000 | 100 to 1000 |  |
| FC(F)c1ccc2ncc(-c3nsc(N4CCOC(c5cn[nH]c5)C4)n3)n2c1 (centres unmarked) [I-105, 4-(3-(6-(difluoromethyl)imidazo[1,2-a]pyridin-3-yl)-1,2,4-thiadiazol-5-yl)-2-(1H-pyrazol-4-yl)morpholine] | > 5000 |  | 10 to 100 |
| CS(=N)(=O)C[C@H]1CCCN(c2ccnc(-c3cnc4ccc(Cl)cn34)n2)C1 (stereo in doubt) [I-21, 6-Chloro-3-(4-(3-((methylsulfonimidoyl)methyl)piperidin-1-yl)pyrimidin-2-yl)imidazo[1,2-a]pyridine] | 500 to 5000 |  | 10 to 100 |
| C[C@H]1CN(c2nccc(-c3cnc4ccc(C(F)F)cn34)n2)C[C@@H](CNS(C)(=O)=O)C1(F)F (stereo in doubt) [I-41, N-[[-1-[4-[6-(Difluoromethyl)imidazo[1,2-a]pyridin-3-yl]pyrimidin-2-yl]-4,4-difluoro-5-methyl-3-piperidyl]methyl]methanesulfonamide] | 500 to 5000 |  | < 10 |
| OCC1CN(c2ccnc(-c3cnc4ccc(C(F)(F)F)cn34)n2)CCC1O (centres unmarked) [I-241, 3-(hydroxymethyl)-1-(2-(6-(trifluoromethyl)imidazo[1,2-a]pyridin-3-yl)pyrimidin-4-yl)piperidin-4-ol] | 500 to 5000 | 10 to 100 |  |
| Cc1[nH]ncc1[C@H]1CN(c2ccnc(-c3cnc4ccc(C(F)(F)F)cn34)n2)C[C@H](C)O1 [I-147, (2 S,6 S)-2-methyl-6-(5-methyl-1H-pyrazol-4-yl)-4-(2-(6-(trifluoromethyl)imidazo[1,2-a]pyridin-3-yl)pyrimidin-4-yl)morpholine] | < 500 | 10 to 100 |  |
| CC1(C)C[C@H]1CN1CCN(c2ccnc(-c3cnc4ccc(C(F)(F)F)cn34)n2)C[C@@H]1c1cn[nH]c1 [I-528, 3-(4-((S)-4-(((R)-2,2-dimethylcyclopropyl)methyl)-3-(1H-pyrazol-4-yl)piperazin-1-yl)pyrimidin-2-yl)-6-(trifluoromethyl)imidazo[1,2-a]pyridine] | < 500 | 10 to 100 |  |
| Cc1[nH]ncc1[C@H]1CN(c2ccnc(-c3cnc4cc(F)c(Cl)cn34)n2)C[C@@H](C)O1 [I-540, (2R,6S)-4-(2-(6-chloro-7-fluoroimidazo[1,2-a]pyridin-3-yl)pyrimidin-4-yl)-2-methyl-6-(5-methyl-1H-pyrazol-4-yl)morpholine] | < 500 | < 10 |  |
| C[C@@H]1C[C@H](N=S(C)(C)=O)CN(c2ccnc(-c3cnc4ccc(C5CC5)cn34)n2)C1 [I-300, (((3 S,5R)-1-(2-(6-cyclopropylimidazo[1,2-a]pyridin-3-yl)pyrimidin-4-yl)-5-methylpiperidin-3-yl)imino)dimethyl-λ6-sulfanone] | 500 to 5000 | 10 to 100 |  |
| CS(=O)(=O)NC[C@@H]1CN(c2ccnc(-c3cnc4ccc(C(F)F)cn34)n2)CCO1 [I-13, N-[[(2S)-4-[2-[6-(Difluoromethyl)imidazo[1,2-a]pyridin-3-yl]pyrimidin-4-yl]morpholin-2-yl]methyl]methanesulfonamide] | 500 to 5000 |  | < 10 |
| FC(F)(F)c1ccc2ncc(-c3ccnc(N4CCOC(c5cn[nH]c5)C4)n3)n2c1 (centres unmarked) [I-9, 2-(1H-Pyrazol-4-yl)-4-(4-(6-(trifluoromethyl)imidazo[1,2-a]pyridin-3-yl)pyrimidin-2-yl)morpholine] | < 500 |  | < 10 |
